Results: patent publication US7115380B2, “Applications of peptides derived from the cytoplasmic domain of amyloid precursor protein (APP)” (Centre National de la Recherche Scientifique, priority 1999, dated 2006)
One block for each molecule: values may come before it. Where a SMILES comes first, the peptide text is derived from it. The star is where a group is joined. Cbz = O=C(OCc1ccccc1)*; CH2F = FC*

Assays:
[1] = test system: E15 rat cortical neurones; experiment: Cell death by TUNEL in E15 rat cortical neurones (FIG. 3); type: cell-based
Description: (§1) Cortical and corticostriatal neurons are prepared, as described previously (Lafont et al., Development, 1992, 114, 17–29, ), from E14, mouse embryos or from E15, rat embryos.
(§2) Briefly, the dissociated cells are plated out onto polyornithine-coated plastic plates (ELISA-type plates) at a density of 5,000, cells per well, and incubated in a suitable medium supplemented with hormones, proteins and salts.
(§3) All the peptides are added to the cells two hours after the latter have been plated out. The internalization is verified by confocal microscopy after immunolabeling (Pmyc) or detection of biotin (Jcasp and its variants).
(§4) The internalization and the intracellular stability of Jcasp, Pmyc and J(Y→D)Casp are identical. The irreversible caspase inhibitors zVAD-fmk (100 μM) and zDEVD-fmk (200 μM) (Calbiochem, France) are added 1 hour before addition of the peptide.
(§5) The apoptotic cells are detected by TUNEL labeling (fluorescein or alkaline phosphatase kits) as described by the supplier (Roche Diagnostics, France).
(§6) For each condition, 600 to 800 cells are counted three times.
(§7) The statistical analysis is carried out with ANOVA and the Scheffé test.
Peptide Jcasp induces neuronal apoptosis. Two hours after plating out onto plates, peptide Jcasp is added to the E15 rat cortical neurones and cell death is evaluated by the TUNEL effect, 24 hours later.

[2] = test system: p20 subunit of caspase 3 in mouse cortical embryonic neurons; experiment: Immunoreactivity for the p20 subunit of caspase 3 (FIGS. 6 and 7); type: cell-based; conditions: inhibitor with peptide Jcasp
Description: (§8) For the immunodetection of the fractin or of the p20 subunit of caspase 3 (Pharmingen), the cells are fixed with 4% paraformaldehyde (30 minutes, room temperature), washed three times with PBS and saturated for 1 hour at 37° C. with 10% fetal calf serum (FCS) in PBS containing 0.2% of Triton X 100.
(§9) Purified primary antibodies directed against fractin or p20 are diluted (in PBS-FCS) 2000-fold and 500-fold, respectively, incubated overnight at 4° C. washed three times and incubated with biotinylated anti-rabbit antibodies.
(§10) The detection is carried out using the alkaline phosphatase amplification kit (Vector, France).
as §6, §7
In order to verify that caspase 3 is effectively involved in the apoptosis caused by peptide Jcasp, use is made of the fact that this enzyme (caspase 3) is synthesized in the form of a propetide (37 kDa) which, after stimulation, generates an active subunit of 17–22 kDa (p20).
Immunoreactivity for p20 is examined in mouse cortical embryonic neurons cultured for 24 hours in the presence of several peptides. FIG. 6 illustrates the immunoreactivity for the p20 protein and FIG. 7 quantifies the induction of the p20.

[3] = test system: actin cleavage by caspase 3 in neurons; experiment: Quantification of actin cleavage by caspase 3 using anti-fractin antibody (FIGS. 4 and 5); type: cell-based, mouse or rat; conditions: for actin cleavage (percentage of fractin-positive neurons): 24 h, triplicate
Description: as §8, §9, §10, §6, §7
FIGS. 4 and 5 illustrate the quantification of the actin cleavage by caspase 3 using the anti-fractin antibody, by immunocytochemistry after fixing the cells with paraformaldehyde (F. Yang et al., Am. J. Pathol., 1998, 152, 2, 379–389). The anti-fractin antibody specifically recognizes actin cleaved by caspase 3. The percentage of fractin-positive neurons was determined after 24 h of internalization of the peptides, by counting approximately 1000 cells per well in triplicate.

[4] = test system: neurons (primary culture); experiment: Quantification of DNA cleavage by TUNEL 24 h after internalization of the peptides (FIG. 2); type: cell-based, mouse or rat; conditions: for DNA cleavage (percentage of TUNEL-positive cells): triplicate, p<0.0001
Description: as §1, §2, §3, §4, §5, §6, §7
Peptide G was internalized at 2 concentrations (1X and 2X) and peptide Gcasp (or Jcasp) was internalized at the 1X concentration, in the presence or absence of the caspase inhibitor zVAD.
Each condition was tested in triplicate. The percentage of positive cells was evaluated after 24 h by counting approximately 1000 cells per well.

[5] = test system: cortical and corticostriatal neurons; experiment: Internalization of peptides into primary cultures of neurons: toxicity, neurite growth, neuronal death; type: cell-based, mouse or rat
Description: as §1, §2
The internalization conditions are the same as those described in International Application WO 97/12912.
as §3

Molecule: COC(=O)CC[C@H](NC(=O)[C@H](CC(=O)OC)NC(=O)OCc1ccccc1)C(=O)N[C@H](C(=O)N[C@@H](CC(=O)OC)C(=O)CF)C(C)C [zDEVD-fmk]
- effect on basal cell death (TUNEL) ([1]; inhibitor at 200 μM, added 1 hour before peptide): weak effect
- inhibition of DNA fragmentation induced by peptide Jcasp ([1]; inhibitor at 200 μM, Jcasp at 1.2 μM and 2.4 μM): inhibits the DNA fragmentation
- effect on activation of p20 by peptide Jcasp [2]: significantly decreases the activation of p20
- effect on actin cleavage induced by peptide Jcasp (FIG. 5) ([3]; inhibitor with peptide Jcasp): inhibits the actin cleavage

- effect of caspase inhibitor on peptide-induced increase in DNA cleavage (TUNEL) ([4]; with peptide G or Jcasp): inhibits this increase in cleavage
- effect on endogenous cleavage of actin by caspases of neurones ([3]; inhibitor alone): inhibits all endogenous cleavage
- effect on the peptide-induced increase in actin cleavage ([3]; with G1X, G2X and Gcasp1X, p<0.0001, inhibition not complete): significantly inhibits the increase
Molecule: COC(=O)C[C@H](NC(=O)[C@H](C)NC(=O)[C@@H](NC(=O)OCc1ccccc1)C(C)C)C(=O)CF [zVAD-fmk] (Cbz-Val-Ala-Asp(OMe)-CH2F)

Molecule: peptide E: SEQ ID NO: 5 + domain E (VDAAVTPEE, SEQ ID NO: 6), APP positions 663–671 (KQIKIWFQNRRMKWKKVDAAVTPEE; listed as Homo sapiens)
- effect on neurite growth after internalization ([5]; internalization into neurons): no effect

- actin cleavage (percentage of fractin-positive neurons) ([3]; 1X): significant increase
- actin cleavage (percentage of fractin-positive neurons) ([3]; 2X, p<0.0001): significant increase
Molecule: peptide G: KQYTSIHHG, APP positions 651–659 (SEQ ID NO: 2, Y0 null), tested with Y1 = penetratin SEQ ID NO: 5 (KQIKIWFQNRRMKWKKKQYTSIHHG; listed as Homo sapiens)
- effect on neurite growth after internalization ([5]; concentrations lower than one μM): reproduces the effects of the intact C-terminal domain
- pro-apoptotic nature after internalization ([5]; internalized into neurons): pro-apoptotic
- DNA cleavage (percentage of TUNEL-positive cells) ([4]; concentration 1X): significant increase
- DNA cleavage (percentage of TUNEL-positive cells) ([4]; concentration 2X): significant increase

Molecule: peptide H: SEQ ID NO: 5 + domain H (NGYENPTYK, SEQ ID NO: 7), APP positions 680–688 (KQIKIWFQNRRMKWKKNGYENPTYK; listed as Homo sapiens)
- effect on neurite growth after internalization ([5]; internalization into neurons): no effect

Molecule: Pmyc: SEQ ID NO: 5 + peptide corresponding to the MYC sequence [EQKLISEED]; no relation to APP (KQIKIWFQNRRMKWKKEQKLISEED; listed as Homo sapiens)
- DNA fragmentation / number of TUNEL-positive cells ([1]; 24 hours, concentration not given): no effect
